Experiment in all cases: CellTiter-Glo in vitro cell proliferation assay, Example 8
Type in all cases: cell-based, Human
In general terms: ATP-based viability assays read luminescence as a measure of living cells.

In one assay the test system is A2780 cells. To be noted: A2780, Ovarian, read-out: Mean IC50. The method, boiled down:
(§1)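 Growth was assessed on cells given 24 h to settle at 37 °C, then incubated 72 h with compound (0.0075–100 μM, DMSO carrier). A room-temperature, 60 min CellTiter-Glo step preceded luminescence measurement.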

A further assay has as its system A2780CP cells. To be noted: Ovarian, read-out: Mean IC50. The method, boiled down:
as §1

A further assay deals with A498 cells. To be noted: A498, RCC, read-out: Mean IC50. The gist of the method: as §1
The subject of the next assay is AN3CA cells. The settings on record: Endometrial, read-out: Mean IC50. The method, boiled down: as §1
Another assay relates to ASPC-1 cells. To be noted: ASPC-1, Pancreatic, read-out: Mean IC50. The gist of the method:
as §1

The next assay deals with BxPC-3 cells. The settings on record: BxPC-3, Pancreatic, read-out: Mean IC50. The method, boiled down: as §1
The next assay relates to DOHH-2 cells. The settings on record: DoHH-2, GCB-DLBCL, read-out: Mean IC50. The method, boiled down: as §1
Another assay relates to FaDu cells. To be noted: H&N - SC, read-out: Mean IC50. The gist of the method: as §1
The test system of the next assay is H1650 (EGFR mut) cells. The settings on record: read-out: Mean IC50. The method, boiled down:
as §1

Another assay has as its system H1975 (EGFR mut) cells. To be noted: read-out: Mean IC50. The gist of the method: as §1
The subject of the next assay is HCC70 cells. To be noted: HCC70, TNBC, read-out: Mean IC50. The method, boiled down: as §1
In the next assay the test system is HEC-1a cells. The settings on record: Endometrial, read-out: Mean IC50. The method, boiled down: as §1
A further assay has as its system JIM1 cells. The settings on record: JIM1, HMCL, read-out: Mean IC50. The method, boiled down: as §1
The next assay relates to KMM-1 cells. The settings on record: KMM-1, HMCL-A, read-out: Mean IC50. The method, boiled down: as §1
Another assay has as its system KMS-34 cells. The settings on record: KMS-34, HMCL-B, read-out: Mean IC50. The gist of the method: as §1
A further assay deals with L363 cells. To be noted: L363, PCL/MM, read-out: Mean IC50. The gist of the method: as §1
For a further assay, the system named is MDA-MB-231 cells. To be noted: MDA-MB-231, TNBC, read-out: Mean IC50. The gist of the method: as §1
The test system of the next assay is MDA-MB-468 cells. To be noted: MDA-MB-468, TNBC, read-out: Mean IC50. The gist of the method: as §1
The next assay concerns MIA PaCa-2 cells. The settings on record: MIA PaCa-2, Pancreatic, read-out: Mean IC50. The method, boiled down: as §1
The next assay concerns MOLP-8 cells. The settings on record: MOLP-8, MM IgD, read-out: Mean IC50. The method, boiled down:
as §1

The subject of a further assay is OCI-LY3 cells. The settings on record: OCI-LY3, ABC-DLBCL, read-out: Mean IC50. The gist of the method:
as §1

The subject of the next assay is SiHA cells. The settings on record: Cervical - SC, read-out: Mean IC50. The method, boiled down: as §1
The next assay concerns RPMI-8226 cells. The settings on record: RPMI-8226, HMM. The gist of the method:
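After 24 h plating, cells exposed to compound in DMSO over 0.0075–100 µM for 72 h at 37 °C. Viability read by CellTiter-Glo luminescence after 60 min at room temperature, relative to DMSO controls.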

Consider six molecules from patent US12129265B2, “Therapeutic agents and uses thereof” (Ankh Life Sciences Limited, priority 2020, dated 2024).

Read-outs that look alike come from different tables or passages of the source.

Broadly, the IC50 is the point on the concentration scale where inhibition reaches its midpoint. `COc1ccc2c3c([nH]c2c1)C(CC(CC1=NCCc2c1[nH]c1cc(OC)ccc21)c1cccc(F)c1)=NCC3` [compound 20]: the IC50 in the assay with A2780 cells amounted to 3.75 µM; in the assay on A2780CP cells, 5.06 µM; in the assay with A498 cells it was 11.3 µM; with AN3CA cells, 1.86 µM; with ASPC-1 cells, 3.66 µM; with BxPC-3 cells, 2.25 µM. Moreover, the IC50 amounted to 1.88 µM in the assay with DOHH-2 cells; 4.05 µM in the assay on FaDu cells; 4.44 µM with H1650 (EGFR mut) cells (NSCLC); 6.41 µM with H1975 (EGFR mut) cells (NSCLC); 6.35 µM in the assay on HCC70 cells; 11 µM with HEC-1a cells. The IC50 in the assay with JIM1 cells worked out at 4.28 µM; with KMM-1 cells it was 3.66 µM; in the assay on KMS-34 cells, 3.26 µM; with L363 cells, 3.89 µM; in the assay on MDA-MB-231 cells, 4.71 µM; in the assay with MDA-MB-468 cells, 5.12 µM. For the same molecule, the IC50 with MIA PaCa-2 cells worked out at 2.72 µM; in the assay on MOLP-8 cells it was 2.28 µM; in the assay on OCI-LY3 cells it was 3.85 µM; in the assay on SiHA cells, 6.73 µM; with RPMI-8226 cells it was 1.27 µM.

Turning to `COc1ccc2c3c([nH]c2c1)C(CC(CC1=NCCc2c1[nH]c1cc(OC)ccc21)c1ccc(F)cc1)=NCC3` [compound 21], the IC50 in the assay with A2780 cells came to 7.51 µM; in the assay with A2780CP cells, 9.87 µM; in the assay with A498 cells, 11.7 µM; in the assay on AN3CA cells, 3.93 µM; in the assay with ASPC-1 cells, 5.11 µM; with BxPC-3 cells it was 3.58 µM. Besides, the IC50 in the assay with DOHH-2 cells amounted to 3.61 µM; in the assay on FaDu cells, 6.26 µM; with H1650 (EGFR mut) cells (NSCLC), 8.22 µM; in the assay with H1975 (EGFR mut) cells (NSCLC) it was 11.4 µM; with HCC70 cells, 10.9 µM; in the assay with HEC-1a cells, 11.7 µM. Moreover, the IC50 was determined as 5.55 µM in the assay on JIM1 cells; 6.41 µM in the assay on KMM-1 cells; 3.82 µM with KMS-34 cells; 5.15 µM with L363 cells; 5.95 µM in the assay on MDA-MB-231 cells; 6.74 µM in the assay with MDA-MB-468 cells. Moreover, the IC50 is 4.41 µM in the assay with MIA PaCa-2 cells; 3.69 µM with MOLP-8 cells; 4.94 µM in the assay on OCI-LY3 cells; 11.5 µM in the assay with SiHA cells; 3.56 µM with RPMI-8226 cells.

`COc1ccc2c3c([nH]c2c1)C(CC(CC1=NCCc2c1[nH]c1cc(OC)ccc21)c1cc(F)cc(F)c1)=NCC3` [compound 22]: the IC50 in the assay with A2780 cells was determined as 9.16 µM; in the assay on A2780CP cells, 9.3 µM; in the assay on A498 cells, 21.6 µM; with AN3CA cells, 4.15 µM; with ASPC-1 cells it was 8.61 µM; with BxPC-3 cells, 5.37 µM. The IC50 stood at 4.26 µM with DOHH-2 cells; 11.1 µM with FaDu cells; 11.1 µM with H1650 (EGFR mut) cells (NSCLC); 11.5 µM in the assay with H1975 (EGFR mut) cells (NSCLC); 13.2 µM with HCC70 cells; 11.8 µM in the assay on HEC-1a cells. The IC50 came out at 7.35 µM in the assay with JIM1 cells; 6.21 µM in the assay on KMM-1 cells; 3.9 µM in the assay on KMS-34 cells; 6.12 µM in the assay on L363 cells; 7.12 µM in the assay on MDA-MB-231 cells; 11.5 µM in the assay with MDA-MB-468 cells. In addition, the IC50 in the assay with MIA PaCa-2 cells is 5.93 µM; in the assay on MOLP-8 cells it was 3.83 µM; in the assay on OCI-LY3 cells, 9.73 µM; in the assay on SiHA cells, 11.7 µM; with RPMI-8226 cells it was 2.06 µM.

As to `COc1ccc2c3c([nH]c2c1)C(CC(CC1=NCCc2c1[nH]c1cc(OC)ccc21)c1cc(F)c(F)cc1F)=NCC3` [compound 23], the IC50 in the assay on A2780 cells was 5.07 µM; in the assay with A2780CP cells, 6.49 µM; in the assay on A498 cells it was 21.4 µM; in the assay on AN3CA cells, 2.38 µM; with ASPC-1 cells, 9.26 µM; with BxPC-3 cells, 4.97 µM. For the same molecule, the IC50 in the assay with DOHH-2 cells was found to be 3.73 µM; in the assay on FaDu cells, 6.14 µM; in the assay with H1650 (EGFR mut) cells (NSCLC), 5.89 µM; in the assay with H1975 (EGFR mut) cells (NSCLC), 8.23 µM; in the assay with HCC70 cells, 10.9 µM; with HEC-1a cells it was 12.5 µM. Also, the IC50 is 6.32 µM with JIM1 cells; 3.98 µM in the assay on KMM-1 cells; 3.47 µM in the assay on KMS-34 cells; 4.72 µM in the assay with L363 cells; 5.94 µM in the assay with MDA-MB-231 cells; 6.54 µM with MDA-MB-468 cells. Moreover, the concentration for half-maximal inhibition (IC50) amounted to 5.64 µM in the assay on MIA PaCa-2 cells; 3.19 µM in the assay with MOLP-8 cells; 5.45 µM in the assay with OCI-LY3 cells; 11.7 µM in the assay on SiHA cells; 1.28 µM with RPMI-8226 cells.

`COc1ccc2c3c([nH]c2c1)C(CC(CC1=NCCc2c1[nH]c1cc(OC)ccc21)c1c(F)c(F)c(F)c(F)c1F)=NCC3` [compound 24]: the IC50 was determined as 10.6 µM in the assay on A2780 cells (Homo sapiens); 17.8 µM with A2780CP cells (Homo sapiens, A2780C/P); 83.8 µM with A498 cells (Homo sapiens); 11.2 µM with AN3CA cells (Homo sapiens, AN3-CA); 32.7 µM in the assay with ASPC-1 cells (Homo sapiens, ASPC1); 10.8 µM in the assay on BxPC-3 cells (Homo sapiens). In addition, the IC50 worked out at 5.58 µM with DOHH-2 cells (Homo sapiens); 11.7 µM in the assay on FaDu cells (Homo sapiens); 12.5 µM with H1650 (EGFR mut) cells (Homo sapiens, NCI-H1650, NSCLC); 11.7 µM in the assay with H1975 (EGFR mut) cells (Homo sapiens, NCI-H1975, NSCLC); 25.7 µM in the assay with HCC70 cells (Homo sapiens); 48.2 µM in the assay on HEC-1a cells (Homo sapiens). In addition, the IC50 was found to be 56.1 µM in the assay on JIM1 cells (Homo sapiens); 11.3 µM in the assay on KMM-1 cells (Homo sapiens); 7.84 µM in the assay with KMS-34 cells (Homo sapiens); 13.2 µM with L363 cells (Homo sapiens, L-363); 20.7 µM in the assay with MDA-MB-231 cells (Homo sapiens); 16.6 µM in the assay with MDA-MB-468 cells (Homo sapiens). In addition, the IC50 with MIA PaCa-2 cells (Homo sapiens) came out at 13 µM; with MOLP-8 cells (Homo sapiens), 10.6 µM; with OCI-LY3 cells (Homo sapiens), 11.4 µM; in the assay with SiHA cells (Homo sapiens), 58.9 µM; in the assay on RPMI-8226 cells (Homo sapiens) it was 5.05 µM.

Regarding `COc1ccc2c3c([nH]c2c1)C(CC(CC1=NCCc2c1[nH]c1cc(OC)ccc21)c1ccc(Cl)cc1)=NCC3` [compound 27], the IC50 came to 8.09 µM in the assay on A2780 cells; 11.1 µM in the assay on A2780CP cells; 11.7 µM in the assay with A498 cells; 4.36 µM in the assay with AN3CA cells; 7.34 µM in the assay with ASPC-1 cells; 4.61 µM in the assay on BxPC-3 cells. Further, the IC50 in the assay on DOHH-2 cells turned out to be 2.52 µM; with FaDu cells, 11.2 µM; in the assay on H1650 (EGFR mut) cells (NSCLC), 11.3 µM; in the assay on H1975 (EGFR mut) cells (NSCLC), 11.5 µM; in the assay with HCC70 cells, 11.4 µM; with HEC-1a cells, 11.7 µM. The IC50 in the assay with JIM1 cells is 11.4 µM; in the assay on KMM-1 cells, 7.18 µM; in the assay on KMS-34 cells, 4.44 µM; with L363 cells it was 7.83 µM; in the assay with MDA-MB-231 cells, 7.39 µM; with MDA-MB-468 cells, 10.8 µM. For the same molecule, the IC50 with MIA PaCa-2 cells amounted to 5.83 µM; in the assay on MOLP-8 cells, 3.97 µM; in the assay on OCI-LY3 cells, 9.27 µM; with SiHA cells, 11.6 µM; in the assay with RPMI-8226 cells, 3.21 µM.
